Source: US12642795B2, “MRGPRX2 antagonist for the treatment of pseudo allergic reactions” (The University of Hong Kong, priority 2021, dated 2026)

Tests used:
MRGPRX2 = molecular target: T1, MRGPRX2 (Homo sapiens, UniProt Q96LB1); assay: MRGPRX2 activation assay (PRESTO-Tango assay); format: cell-based; details: MRGPRX2-Tango transfected HTLA cells, followed by EC90 concentration (10 μM) of C48/80
T1 construct: expressed in transfected cells; host or cells: HTLA cells
T1 sequence (Q96LB1 1-330): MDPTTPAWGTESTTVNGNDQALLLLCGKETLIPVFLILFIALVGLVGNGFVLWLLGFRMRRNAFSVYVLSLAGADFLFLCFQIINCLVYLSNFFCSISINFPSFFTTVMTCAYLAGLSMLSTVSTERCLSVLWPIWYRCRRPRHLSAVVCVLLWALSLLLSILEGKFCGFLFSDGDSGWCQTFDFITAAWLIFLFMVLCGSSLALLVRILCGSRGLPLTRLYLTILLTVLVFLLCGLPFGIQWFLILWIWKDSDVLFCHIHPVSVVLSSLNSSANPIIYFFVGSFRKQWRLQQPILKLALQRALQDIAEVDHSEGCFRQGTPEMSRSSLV
Method: On day 1 of the experiment, HTLA cells were seeded at 1×10^6 cells per 100 mm cell culture dish for transfection. On the following day (day 2), HTLA cells were transfected with Tango MRGPRX2 DNA using the Lipofectamine transfection reagent (Thermo Fischer Scientific). On day 3, Tango MRGPRX2 transfected cells were transferred into 96-well white clear-bottom cell culture plates at a density of 2×10^4 cells/well/80 μL (PerkinElmer Life Science).

Human LAD-2 MCs = assay: Intracellular Ca2+ flux assay (Fluo-4 NW); format: cell-based; details: LAD2 MCs; for reduction of C48/80 induced Ca2+ flux: C48/80 EC90 concentration; for efficacy in Ca2+ flux reduction at 12.5 μM, 25 μM and 50 μM: ****P<0.0001 vs C48/80
Method: The intracellular Ca^2+ flux was measured in human LAD-2 MCs by using the Fluo-4 NW calcium assay kit and the protocol according to the manufacturer (Molecular Probe, Invitrogen, USA). Briefly, LAD-2 cells were plated in a 96-well black well plate (SPL Life Sciences) at a density of 1×10^5 cells/well/40 μL in assay buffer and incubated for 1 h at 37° C. incubators. After 1 h, 40 μL of the 2× dye loading solution and antagonist or buffer was added to the cells (10 μL of 10× stock). […] After one hour of incubation, a graded concentration of agonist or buffer was added to the cells (10 μL of 10× stock). The fluorescence was measured at an excitation wavelength of 494 nm and an emission wavelength of 516 nm using Victor 4× plate reader (PerkinElmer) for 150 seconds. The ΔF was calculated by […] and plotted by using Graph Pad Prism.

Human LAD-2 mast cells = assay: β-Hexosaminidase MCs degranulation assay; format: cell-based; details: LAD2, LAD-2 MCs, followed by EC90 concentration (10 μM) of C48/80
Method: Human LAD-2 mast cells were seeded at 2×10^4 cells/well/80 μL in a 96-well plate. A 10× stock of antagonist were prepared in HEPES buffer (HEPES (10 mM), NaCl (137 mM), KCl (2.7 mM), Na2HPO4·7H2O (0.4 mM), glucose (5.6 mM), CaCl2·2H2O (1.8 mM), MgSO4·7H2O (1.3 mM), bovine serum albumin (0.04%), pH 7.4). […] The plate was spun at 450×g for 5 minutes at room temperature, and 50 μL of supernatant was aliquoted to a new 96 well plate. The cells were lysed with 100 μL of 0.1% Triton X-100, and 50 μL of lysate was aliquoted to another 96 well plates. A 1.3 mg/ml solution of the substrate PNAG (4-Nitrophenyl N-acetyl-β-D-glucosaminide) was prepared in 0.1 M citric acid/sodium citrate buffer (pH 4.5, 24.087 g/L Sodium Citrate dihydrate, and 3.471 g/L Citric Acid). 50 μL of PNAG was added to each well of supernatant and lysate, and cells were incubated for 90 min at 37° C. (without CO2). The reaction was stopped by adding 50 μL of 0.4 M Glycine buffer. The extent of yellow color was measured at 405 nm using Victor 4× plate reader (PerkinElmer), and percentage MCs degranulation (β-hexosaminidase release) was calculated by using the formula; % MCs degranulation: […]

C57/BL/6N mice [1] = assay: In-vivo systemic anaphylaxis mice model (C48/80 induced); design: species or system mouse; details: 5 mg/kg intraperitoneally, C48/80 8 mg/kg intraperitoneally
Method: Animals (C57/BL/6N aged 6-8 weeks old, n=6-8/group) were transported to the procedure area the day before injections to minimize stress. The antagonists (GE0117, GE1109, or GE1111) or vehicle was injected intraperitoneally, and mice were kept in the cage for 30 minutes. After 30 minutes of saline (negative control), 8 mg/kg of C48/80 was injected intraperitoneally. The volume of intraperitoneal injection was 10 ml/kg body weight as per AAALAC guidelines. The injection site was swabbed with cotton soaked in 70% alcohol, and the mouse was placed in a separate cage as one mouse per cage. Body core temperature was measured before (basal) and after the injections with an IR non-contact thermometer for one hour. Also, mice were monitored for anaphylaxis symptoms/severity and scored from 0-5 for 1 h or until death following C48/80 injection, whichever was first. Briefly, the scoring system was followed as 0, no symptoms; 1, scratching and rubbing around the nose and head; 2, puffiness around the eyes and mouth, diarrhea, pilar erecti, reduced activity, and/or decreased activity with an increased respiratory rate; 3, wheezing, labored respiration, and cyanosis around the mouth and the tail; 4, no activity after prodding or tremor and convulsion; 5, death. The body core temperature and anaphylaxis score were plotted using Graph Pad Prism.

C57/BL/6N mice [2] = assay: In-vivo local anaphylaxis/pseudo allergic mice model (C48/80 induced); design: species or system mouse; details: 5 mg/kg intraperitoneally, vs C48/80 mice; for increase in paw thickness: 15 min after C48/80 (30 μg/ml) in paw; for Evans blue dye extravasation: 15 min after C48/80 (30 μg/ml)
Excerpt: Young adult male mice (C57/BL/6N aged 6-8 weeks old, n=6/group) were used to measure the local anaphylaxis activity by measuring Evans blue tissue extravasation in paw and ear tissue. The animal experiments were approved by the Committee on the Use of Live Animals in Teaching and Research (CULATR) (Animal ethical approval number CULATR 5125-19). Mice were anesthetized via intraperitoneal injection of ketamine and xylazine, and paw thickness was measure using a Vernier caliper. The antagonists (GE0117, GE1109, and GE1111) were injected at a dose of 5 mg/kg body weight via intraperitoneal injection followed by a tail vein injection of 50 μL 12.5% Evans blue in saline (irrespective of the bodyweight). After thirty minutes, C48/80 (10 μL of 30 μg/ml) was injected into one paw and ear, while saline was injected into the other paw and ear as a negative control. After fifteen minutes, the paw and ear tissue were photographed, and the paw thicknesses were measured again to calculate % increase in paw thickness. Mice were euthanized by cervical dislocation under anesthesia, and the collected paw and ear tissues were dried at 50° C. for 24 hours and weighed separately. Evans blue was extracted with formamide (500 μL/tissue) by incubating at 50° C. for 24 h. The supernatant was aliquoted into 96-well plates (200 μL/well, duplicate), and OD was measure at 595 nm using a Victor 4× plate reader (PerkinElmer). The paw edema/inflammation was measured as % increase in paw thickness=

human LAD2 MCs = assay: Monocyte chemoattractant protein-1 (MCP-1) measurement by ELISA; format: cell-based; details: 12.5 μM, 25 μM and 50 μM; compared to C48/80 control
Method: MCP-1 and PGD2 were measured from human LAD2 MCs via individual ELISA kits. Briefly, MCs were seeded at a density of 1.5×10^5 cells/80 μL/well in a 96 well plate in complete Stem-Pro 34 media. […] The cells were centrifuged to collect the supernatant and stored at −80° C. until analyzed. […] After 24 hours, cells were centrifuged to discard the media and lysed with 0.1M potassium phosphate via sonication. The supernatant of cell lysate was collected and stored at −80° C. until analyzed. MCP-1 (Abcam, Cambridge, UK) and PGD2 (Cayman Chemicals, MI, USA) were quantified by ELISA according to manufacturer instruction.

mice ear tissue MCs = assay: Histological analysis of ear tissue (H&E, Toluidine blue; in-vivo MCs degranulation); design: species or system mouse; details: 5 mg/kg intraperitoneally, vs C48/80 treated group
Method: The mice were anesthetized with ketamine/xylazine and were injected with antagonists (GE0117, GE1109, and GE1111) at a dose of 5 mg/kg body weight intraperitoneally. After 30 minutes, C48/80 (10 μL of 30 μg/ml) and saline (as negative control) were injected into the ear. Fifteen minutes later, the mice were sacrificed, and the injection site of the ear was excised, washed with PBS, and fixed with 10% buffered formalin for 24 h. After 24 hours, the ear tissue was dehydrated in a graded concentration of ethanol (30%, 50% & 70% ethanol every 24 hours) at 4° C. Further, the tissue was processed in an automated tissue processor (Leica ASP300) and embedded into paraffin using Embedding Centre (Leica EG1150). The paraffin-embedded tissue was sectioned at […] size using a fully automatic Microtome (Leica RM2265). The tissue sections were subjected to H&E staining using an automated slide Stainer (Leica ST5020) using standard staining protocol. After staining, the slides were dried under a fume hood and mounted with DPX. For the MCs detection, the sectioned ear tissue was subjected to Toluidine blue O staining according to the available online protocol (http://www.ihcworld.com/_protocols/special_stains/toluidine_blue.htm). Images were captured under 10× and 20× magnification using a Nikon Eclipse Ni-U, upright microscope, and Nikon DS-Ri2 microscopic camera (Nikon, Tokyo, Japan).

Compound	IC50 (MRGPRX2)	IC50 (Human LAD-2 mast cells)	reduction of C48/80 induced Ca2+ flux (Human LAD-2 MCs)	C48/80 induced body temperature change at 35 minutes (C57/BL/6N mice [1])	increase in paw thickness (C57/BL/6N mice [2])	Evans blue dye extravasation (C57/BL/6N mice [2])	efficacy in Ca2+ flux reduction at 12.5 μM, 25 μM and 50 μM (Human LAD-2 MCs)	inhibition of C48/80 induced MCP-1 release (human LAD2 MCs)	C48/80 induced body temperature changes at 30 minutes (C57/BL/6N mice [1])	percentage of degranulated MCs in ear tissue (mice ear tissue MCs)	systemic anaphylaxis symptoms (score 0-5) (C57/BL/6N mice [1]; 1 h)
O=c1c(-c2ccc(O)cc2)coc2cc(O)cc(O)c12 [genistein, reference compound]	31.7 µM	30.3 µM	significant (**P<0.001) Ca^2+ flux reduction at 50 μM concentration only	significantly reversed the body temperature change	significant (*P<0.05) antagonizing activity	significant (*P<0.05) antagonizing activity					
COC(=O)c1ccc2cc(-c3cc4c5c(c(O)ccc5c3)C(C)C(C=O)=C4)c(C(=O)OC)cc2c1 (stereo not drawn) [GE1110]	8.93 µM	23.4 µM	significant concentration-dependent reduction				higher efficacy at all three concentrations				
COC(=O)c1cc2cc(NC(N)=O)ccc2cc1-c1cc2c3c(c(O)ccc3c1)C(C)C(C=O)=C2 (stereo not drawn) [GE1111]	9.42 µM	4.7 µM	significant concentration-dependent reduction	significantly reversed the body temperature change	significantly (***P<0.001) attenuated	significantly (***P<0.001) attenuated	higher efficacy at all three concentrations	significantly inhibits the release of MCP-1 at all the tested concentrations	reversed the C48/80 induced body temperature changes	reduces the MCs degranulation	rehabilitated the compound 48/80 induced hypothermia and severity of anaphylaxis symptoms

Continued, in another order:

IC50 (MRGPRX2)	IC50 (Human LAD-2 mast cells)	Compound	reduction of C48/80 induced Ca2+ flux (Human LAD-2 MCs)	C48/80 induced body temperature change at 35 minutes (C57/BL/6N mice [1])	increase in paw thickness (C57/BL/6N mice [2])	Evans blue dye extravasation (C57/BL/6N mice [2])	efficacy in Ca2+ flux reduction at 12.5 μM, 25 μM and 50 μM (Human LAD-2 MCs)	inhibition of C48/80 induced MCP-1 release (human LAD2 MCs)	C48/80 induced body temperature changes at 30 minutes (C57/BL/6N mice [1])	percentage of degranulated MCs in ear tissue (mice ear tissue MCs)	systemic anaphylaxis symptoms (score 0-5) (C57/BL/6N mice [1]; 1 h)
8.91 µM	18.2 µM	COC(=O)c1ccc2cc(-c3cc4c5c(cccc5c3)C(=O)N(C)C4=O)c(C(=O)OC)cc2c1 [GE0118]	significant concentration-dependent reduction								
9.79 µM	20.8 µM	COC(=O)c1ccc2cc(-c3cc4c5c(cccc5c3)C(=O)N(C)C4=O)c(NC(N)=O)cc2c1 [GE0117]	significant concentration-dependent reduction	significantly reversed the body temperature change	significantly (***P<0.001) attenuated	significantly (***P<0.001) attenuated	higher efficacy at all three concentrations	significantly inhibits the release of MCP-1 at all the tested concentrations			
7.14 µM	9.87 µM	COC(=O)c1cc2cc(NC(N)=O)ccc2cc1-c1ccc2c3c(cccc13)C(=O)C=C2 [GE1109]	significant concentration-dependent reduction	significantly reversed the body temperature change	significant (*P<0.05) antagonizing activity	significant (*P<0.05) antagonizing activity	higher efficacy at all three concentrations	significant activity only at 25 μM, and 50 μM	reversed the C48/80 induced body temperature changes	reduces the MCs degranulation	
20.1 µM	25.5 µM	COC(=O)c1cc2cc(NC(N)=O)ccc2cc1-c1cc2c3c(cccc3c1)C(=O)N(C)C2=O [GE0119]	significant concentration-dependent reduction								
